Experimental findings from PMC10786919, “Design-rules for stapled peptides with in vivo activity and their application to Mdm2/X antagonists” (Nature Communications, 2024) are described below.

Common to all, as to type: cell-based
The nature of series [1]: Lactate dehydrogenase (LDH) release assay. As to conditions: LDH: Cytotoxicity assay EC50. The procedure, abridged:
(§1)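 Membrane damage measured as lactate dehydrogenase release (CytoTox-ONE kit) from p53-responsive β-lactamase reporter HCT116 cells plated at 8000 per well. Final DMSO 0.5%; geometric mean reported from a minimum of three biological replicates.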

For another series, the system named is HCT116 cells. The series is described as follows: Lactate dehydrogenase (LDH) release assay. The procedure, abridged:
as §1

In series [2] the test system is p53 responsive β-lactamase reporter in HCT116 cells. The series is described as follows: cells. The following applies: 0% FBS 4Hr; read-out: p53 reporter assay EC50. Put shortly:
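Read-out used the ToxBLAzer Dual Screen for β-lactamase driven by a stably integrated p53-responsive reporter. Assay: 8000 HCT116 cells per well at 0.5% final DMSO. Reported numbers are geometric means over a minimum of three biological replicates.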
On the technique in general: A reporter such as luciferase makes a cellular process visible.

The subject of series [3] is Jump-In T-REx CHO-K1 BLA cells. The experiment in a line: cells. As to conditions: 0% FBS 4Hr; for EC50: read-out: TETCHO: Counterscreen EC50. As to the method: This assay was based on Jump-In™ T-REx™ CHO-K1 BLA cells containing a stably integrated β-lactamase under the control of an inducible cytomegalovirus (CMV) promoter. Cells were maintained in Dulbecco’s […] Eagle Medium (DMEM) with 10% fetal bovine serum (FBS), Blasticidin, and Penicillin/Streptomycin and then transferred to 1.5 ml freezing vials and stored under liquid nitrogen in growth media containing 5% DMSO. […] Cells were seeded into a 384-well plate at a density of 4000 cells per well. Peptides were then dispensed to each well using a liquid handler, ECHO 555 and incubated for 16 h. The final working concentration of DMSO was 0.5%. β-lactamase activity was detected using the ToxBLAzer Dual Screen (Invitrogen), as per the manufacturer’s instructions. Measurements were carried out using the Envision multiplate reader (Perkin–Elmer). Counterscreen activity was defined as the amount of β-lactamase activity induced by tetracycline. Measurements were taken a minimum of three times (biological replicates) and values are reported as geometric means of the replicates.

Starred links: 1 amine or outer side, 2 acyl side, 3 side chain; linkers in the order of their positions; H or OH if unused. Positions of bridges follow the written chain, without caps; N, C: chain ends. Non-standard residues stand in square brackets, D forms with d. Residues, ends and D or L forms follow the SMILES beside them. dR8(desαMe) = O=C([C@@H](CCCCCCC=[*:3])N[*:1])[*:2]; Nle(6-ylidene) = O=C([C@H](CCCC=[*:3])N[*:1])[*:2]; tBuAla = CC(C)(C)C[C@H](N)C(=O)O; R8 = C=CCCCCCC[C@@](C)(N)C(=O)O; S5 = C=CCCC[C@](C)(N)C(=O)O

The EC50 is the concentration at which the effect is half-maximal. Take `CC(=O)N[C@H](C(=O)N[C@@H](CO)C(=O)N[C@@H](Cc1ccccc1)C(=O)N[C@]1(C)CCCCCCC=CCCC[C@@](C)(C(N)=O)NC(=O)[C@H](CC(C)C)NC(=O)[C@H](CC(C)C)NC(=O)[C@H](C)NC(=O)[C@H](Cc2c[nH]c3ccccc23)NC(=O)[C@H](Cc2ccc(O)cc2)NC(=O)[C@H](CCC(N)=O)NC1=O)[C@@H](C)O` [MP-163] (Ac-TSF[R8]QYWALL[S5]-NH2; staple 4-11): the values for the EC50 in series [1], in series [2] and in series [3] were above 50 µM, 11.5 µM and above 50 µM, respectively. In addition, in the series with HCT116 cells, the “LDH: Cytotoxicity assay % Effect” value is 6.049%. For the same compound, the “TETCHO: Counterscreen % Effect” value in series [3] amounted to 21.33%.

For the compound `CC(=O)N[C@H](C(=O)N[C@@H](CO)C(=O)N[C@@H](Cc1ccccc1)C(=O)N[C@@H]1CCCCCCC=CCCC[C@@H](C(N)=O)NC(=O)[C@H](CC(C)(C)C)NC(=O)[C@H](CC(C)C)NC(=O)[C@H](C)NC(=O)[C@H](Cc2c[nH]c3ccccc23)NC(=O)[C@H](Cc2ccc(O)cc2)NC(=O)[C@H](CCC(=O)O)NC1=O)[C@@H](C)O` [MP-150] (Ac-TSF[dR8(desαMe)]EYWAL[tBuAla][Nle(6-ylidene)]-NH2; staple 4-11), the figures for the EC50 in series [1], in series [2] and in series [3] were above 50 µM, 22.3 µM and above 50 µM, respectively. Besides, in the series with HCT116 cells, the “LDH: Cytotoxicity assay % Effect” value is listed as -0.7157%. The “TETCHO: Counterscreen % Effect” value in series [3] was -3.542%.

With `CC(=O)N[C@@H](CCCNC(=N)N)C(=O)N[C@@H](CCCNC(=N)N)C(=O)N[C@@H](CCCNC(=N)N)C(=O)NCCCCCC(=O)N[C@H](C(=O)N[C@@H](CO)C(=O)N[C@@H](Cc1ccccc1)C(=O)N[C@]1(C)CCCCCCC=CCCC[C@@](C)(C(N)=O)NC(=O)[C@H](CC(C)C)NC(=O)[C@H](CC(C)C)NC(=O)[C@H](C)NC(=O)[C@H](Cc2c[nH]c3ccccc23)NC(=O)[C@H](Cc2ccc(O)cc2)NC(=O)[C@H](CCC(=O)O)NC1=O)[C@@H](C)O` [MP-1177], the EC50 in series [1] came to 31.8 µM; in series [2] it was 8.42 µM; in series [3], 17.6 µM. Moreover, the “LDH: Cytotoxicity assay % Effect” value in the series with HCT116 cells came to 51.96%. Also, the “TETCHO: Counterscreen % Effect” value in series [3] turned out to be 50.69%.

For the compound `CC(=O)N[C@H](C(=O)N[C@@H](CO)C(=O)N[C@@H](Cc1ccccc1)C(=O)N[C@]1(C)CCCCCCC=CCCC[C@@](C)(C(=O)O)NC(=O)[C@H](CC(C)C)NC(=O)[C@H](CC(C)C)NC(=O)[C@H](C)NC(=O)[C@H](Cc2c[nH]c3ccccc23)NC(=O)[C@H](Cc2ccc(O)cc2)NC(=O)[C@H](CCC(=O)O)NC1=O)[C@@H](C)O` [MP-162], the EC50 in series [1] was above 50.7 µM; in series [2], 36.2 µM; in series [3], 46.9 µM. Besides, the “LDH: Cytotoxicity assay % Effect” value in the series with HCT116 cells is 20.08%. Besides, in series [3], the “TETCHO: Counterscreen % Effect” value turned out to be 18.54%.
